Consider two molecules from patent US5798372A, “Method for preventing onset of restenosis after angioplasty employing a retinoid” (Allergan, priority 1997, dated 1998).

A value given as a limit tells only on which side of the number the result lay.

Data set [1] has as its system endothelial cells (canine aorta). Briefly: Serotonin-induced endothelial cell proliferation, 3H-thymidine incorporation. To be noted: Canis lupus familiaris, Table 3, read-out: ED50 FOR ENDOTHELIAL Cells, Serotonin. The class given is cell-based. As to the method: (§1) The effect of 1% serum on DNA synthesis by endothelial or smooth muscle cells using ^3 H-thymidine incorporation was measured. For measuring the effectiveness of retinoids in inhibiting endothelial or smooth muscle cell proliferation induced by certain mitogens, i.e., serotonin or β-FGF the indicated concentrations were added to the media instead of 1% serum. Primary cells isolated from canine aorta were used for these studies. Unlike the typical cell lines (e.g. NIH 3T3 cells, etc.) 6-7 weeks are required to isolate and grow these primary cells in sufficient number to perform a single experiment. For the following studies, the primary cells (passages 2-4) were plated on 35×10 mm tissue culture dishes in 10% fetal bovine serum (FBS) and incubated. After 72 hours of growth the medias was replaced with 0.1% FBS for synchronization and incubated for additional 72 hours. Then 1% serum was added and incubated for 20 hours followed by the addition of 1μCi of ^3 H-thymidine. Four hours after the addition of 3H-thymidine the DNA was precipitated and the amount of ^3 H-thymidine incorporated was measured. This value is reported as the serum or serotonin or β-FGF stimulated value for cellular proliferation and is expressed as a percentage of baseline ^3 H-thymidine incorporation.
(§2) To examine the antiproliferative effect of retinoids, they were dissolved in 100% ethanol and then added at the indicated final concentrations. The compounds were added at the time of adding 1% serum or serotonin or β-FGF to stimulate the cells. […] After 20 hours of incubation with retinoids and 1% serum or serotonin or β-FGF, the ^3 H-thymidine incorporation was measured.
(§3) Certain of the retinoids were then tested for mitogen-induced cellular proliferation, utilizing serotonin (5HT) and β-FGF as such mitogens. In this testing, as reported in Table 3, below, the same dosages were evaluated for their effect on mitogen-induced cellular proliferation (The results are reported as ED50 and compared to the ED50 for serum-induced smooth muscle and endothelial cell growth).
Background: Uptake of a labelled nucleoside into DNA is a usual measure of proliferation.

Data set [2] deals with smooth muscle cells (canine aorta). Briefly: Serotonin-induced smooth muscle cell proliferation, 3H-thymidine incorporation. It is filed as cell-based. To be noted: Canis lupus familiaris, Table 3, read-out: ED50 FOR SMOOTH MUSCLE CELLS, Serotonin. As to the method:
as §1, §2, §3

Data set [3] concerns cellular proliferation at the site of vascular injury (balloon angioplasty). The experiment in a line: Rabbit model of angioplasty-induced arterial injury, in vivo 3H-thymidine incorporation. On the set-up: species or system New Zealand white rabbits. To be noted: 10 mg/kg IP daily. The text has this:
There has been interest in attempting to reduce the incidence of restenosis by minimizing the trauma of angioplasty. […] However, a similar relationship between the degree of injury and restenosis has not been documented with conventional balloon angioplasty. In order to better characterize the time course and degree of cellular proliferation resulting from vascular injury, the effect of retinoids on the in vivo incorporation of 3H-thymidine in a rabbit model of arterial injury was studied. Varying degrees of injury were produced including both simple de-endothelialization of the intima as well as stretch injury of the vessel by conventional angioplasty.
3.0-3.5 kg male, New Zealand white rabbits underwent standardized femoral artery injury. Arterial access was obtained through the right carotid artery which was ligated after the procedure. Heparin (100 U/kg IV) was given once arterial access was obtained. Injury was accomplished by the following method:
1. […]
Arterial specimens were then thawed and stripped of all adventitia. […] The samples were neutralized with 0.5N HCl and counted using multisol scintillation fluid.
Using the above described model of angioplasty induced restenosis it was determined whether chronic treatment with all trans retinoic acid can attenuate the cellular proliferation of the site of vascular injury. […]

The test system of data set [4] is endothelial cells (canine aorta). The experiment in a line: β-FGF-induced endothelial cell proliferation, 3H-thymidine incorporation. The class given is cell-based. The settings on record: Canis lupus familiaris, Table 3, read-out: ED50 FOR ENDOTHELIAL Cells, β-FGF. The protocol: as §1, §2, §3
Data set [5] has the same test system. The experiment in a line: Serum (1%)-induced endothelial cell proliferation, 3H-thymidine incorporation. It is filed as cell-based. The settings on record: serum induced; for IC50: Canis lupus familiaris, Endothelial cell. The protocol: as §1
(§4) To examine the antiproliferative effect of retinoids, they were dissolved in 100% ethanol and then added at the indicated final concentrations. The compounds were added at the time of adding 1% serum or serotonin or β-FGF to stimulate the cells. (The maximal final concentration of ethanol in culture media was 1% which is non-cytotoxic to endothelial or smooth muscle cells). After 20 hours of incubation with retinoids and 1% serum or serotonin or β-FGF, the ^3 H-thymidine incorporation was measured.
(§5) In this experimental dosages ranging between 0.01 and 100 μM were evaluated for the effect of AGN 191183 on cell growth.
(§6) The other retinoids, disclosed above, were also tested for their effect on smooth muscle and endothelial cell growth at the same dosages as for AGN 191183. Table 2 reports the ED50 for each of these retinoids.

In data set [6] the test system is smooth muscle cells (canine aorta). The experiment in a line: Serum (1%)-induced smooth muscle cell proliferation, 3H-thymidine incorporation. It is filed as cell-based. The settings on record: Canis lupus familiaris, serum induced. As to the method: as §1, §4, §5, §6
Data set [7] has the same test system. Briefly: β-FGF-induced smooth muscle cell proliferation, 3H-thymidine incorporation. It is filed as cell-based. The settings on record: Canis lupus familiaris, Table 3, read-out: ED50 FOR SMOOTH MUSCLE CELLS, β-FGF. As to the method:
as §1, §2, §3

Setting [8] is: Table 3, read-out: ED50 FOR SMOOTH MUSCLE CELLS, Serum.

On to `CC1=C(/C=C/C(C)=C/C=C/C(C)=C/C(=O)O)C(C)(C)CCC1` [AGN 100335, (E)-3,7-dimethyl-9-(2,6,6-trimethyl-1-cyclohexen-1-yl)-2,4,6,8-nonatetraenoic acid], for which the IC50 in data set [1] was 25 nM; in data set [2], 47 nM; in data set [4], 9 nM; in data set [5] (Table 3, read-out: ED50 FOR ENDOTHELIAL Cells, Serum) it was 28000 nM; in data set [6] (setting [8]), 35800 nM; in data set [7], > 100000 nM. Moreover, the “animals receiving retinoic acid that died before the study was completed” value in data set [3] was 2 out of 4. In addition, the “inhibition of cellular proliferation following angioplasty” value in data set [3] (6 days pretreatment and days 7-9, very small number of animals) was “appeared to inhibit the development of cellular proliferation following angioplasty”.
Turning to `CC1=C(/C=C/C(C)=C\C=C\C(C)=C\C(=O)O)C(C)(C)CCC1` [AGN 192013, (2E,4E,6Z,8E)-3,7-dimethyl-9-(2,6,6-trimethyl-1-cyclohexen-1-yl)-2,4,6,8-nonatetraenoic acid, reference compound], the IC50 in data set [1] is 160 nM; in data set [2], 410 nM; in data set [4], 26500 nM; in data set [5] (Table 2, read-out: ED50 FOR ENDOTHELIAL CELL (concentration at which proliferation is inhibited by 50%)), 2250 nM; in data set [6] (Table 2, read-out: ED50 FOR SMOOTH MUSCLE CELLS (concentration at which proliferation is inhibited by 50%)), > 100000 nM; in data set [6] (setting [8]) it was > 100000 nM. The IC50 in data set [7] is > 100000 nM. For the same molecule, the “order of potency for endothelial cells” value in data set [5] (from Table 2) was “AGN 192013>AGN 190205=AGN 191183”.
